Patent US8822447B2, “Indazole compounds useful as ketohexokinase inhibitors” (Janssen Pharmaceutica NV, priority 2010, dated 2014)
Structures can show the parent of a compound that is named as a salt.
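Also: primary screen measuring inhibition of KHK-catalysed conversion of D-fructose into fructose 1-phosphate.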

The compounds below were run against KHK (Homo sapiens (Human), UniProt P50053) (assay: In Vitro KHK Enzyme Assay (HTMS)). Conditions: 200 μM fructose, 100 μM ATP, 2 nM KHK, 60 min at 25° C.; Fructose-1-P detected by high throughput mass spectrometry.
Chain of KHK (P50053 whole entry): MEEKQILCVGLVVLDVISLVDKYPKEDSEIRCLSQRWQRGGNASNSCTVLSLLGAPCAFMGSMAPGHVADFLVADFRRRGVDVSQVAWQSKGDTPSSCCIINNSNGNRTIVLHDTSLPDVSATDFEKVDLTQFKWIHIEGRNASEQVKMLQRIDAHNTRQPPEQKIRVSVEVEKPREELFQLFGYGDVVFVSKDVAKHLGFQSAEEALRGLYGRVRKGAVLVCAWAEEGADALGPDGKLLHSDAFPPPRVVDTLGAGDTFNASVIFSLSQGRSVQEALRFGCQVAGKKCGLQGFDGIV
Type: biochemical
Protocol: An enzymatic assay was developed to measure KHK-mediated conversion of D-fructose to Fructose-1-P (F-1-P) using High Throughput Mass Spectroscopy (HTMS) as a means of product detection. This assay served as a primary screen to evaluate the ability to inhibit KHK enzyme activity and it has been adapted to high throughput mass spectrometry (HTMS, BioTrove RapidFire™) format for higher throughput.
The compounds to be tested were dosed in 12-points concentration from 511 μM to 0.5 μM. […] The assay was carried out in 384-well plate format.
`CCc1nn(-c2ccccc2)c2cc(N3CCN(C4CCNCC4)CC3)ccc12` [Compound 46, 3-Ethyl-1-phenyl-6-(4-(piperidin-4-yl)piperazin-1-yl)-1H-indazole hydrochloride] was tested, and the IC50 was 560 nM. In the case of `CCc1nn(-c2ccccc2)c2cc(N3CCN(c4ccncc4)CC3)ccc12` [Compound 47, 3-Ethyl-1-phenyl-6-(4-(pyridin-4-yl)piperazin-1-yl)-1H-indazole hydrochloride], the IC50 is reported as 3510 nM. Compound `CCc1nn(-c2ccccc2)c2cc(N3CCN(C4CCNC4)C3=O)ccc12` (centres unmarked) [Compound 48, 1-(3-Ethyl-1-phenyl-1H-indazol-6-yl)-3-(pyrrolidin-3-yl)imidazolidin-2-one hydrochloride] has an IC50 of 2370 nM. In the case of `CCc1nn(-c2ccccc2)c2cc(N3CCN(C4CCNCC4)C3=O)ccc12` [Compound 49, 1-(3-Ethyl-1-phenyl-1H-indazol-6-yl)-3-(piperidin-4-yl)imidazolidin-2-one hydrochloride], the IC50 is reported as 1800 nM. In the case of `CCc1nn(-c2ccccc2)c2cc(N3CC4CNCC4C3)ccc12` (centres unmarked) [Compound 50, 3-Ethyl-6-(hexahydropyrrolo[3,4-c]pyrrol-2(1H)-yl)-1-phenyl-1H-indazolehydrochloride], the IC50 is reported as 5360 nM. With `CCc1nn(-c2ccccc2)c2cc(N3CCC4(CCNC4)C3)ccc12` (centres unmarked) [Compound 51, 6-(2,7-Diaza-spiro[4.4]non-2-yl)-3-ethyl-1-phenyl-1H-indazole hydrochloride] the IC50 was 1470 nM. `CCc1nn(-c2ccccc2)c2cc(-c3ccc(N4CCNCC4)cc3)ccc12` [Compound 52, 3-Ethyl-1-phenyl-6-(4-(piperazin-1-yl)phenyl)-1H-indazole hydrochloride] was tested, and the IC50 was 9800 nM. `CCc1nn(-c2ccccc2)c2cc(N3CCN(C)CC3)ccc12` [Compound 54, 3-Ethyl-6-(4-methylpiperazin-1-yl)-1-phenyl-1H-indazole] gave an IC50 of 4520 nM. `CCc1nn(-c2ccccc2)c2cc(N3CCN(CC)CC3)ccc12` [Compound 55, 3-Ethyl-6-(4-ethylpiperazin-1-yl)-1-phenyl-1H-indazole] was tested, and the IC50 was 11500 nM. Compound `CCc1nn(-c2ccccc2)c2cc(N3CCNC(C)C3)ccc12` (centres unmarked) [Compound 56, 3-Ethyl-6-(3-methylpiperazin-1-yl)-1-phenyl-1H-indazole] has an IC50 of 860 nM. In the case of `Cc1nn(-c2ccccc2)c2cc(-c3ccc(N4CCNCC4)cc3)ccc12` [Compound 58, 3-Methyl-1-phenyl-6-(4-piperazin-1-yl-phenyl)-1H-indazole hydrochloride], the IC50 is reported as 7500 nM. With `Cc1nn(-c2ccccc2)c2cc(N3CCNCC3)ccc12` [Compound 59, 3-Methyl-1-phenyl-6-(piperazin-1-yl)-1H-indazole] the IC50 was 1280 nM. For `Cc1nn(-c2ccccc2)c2cc(N3CC(N4CCNCC4)C3)ccc12` [Compound 60, 3-Methyl-1-phenyl-6-(3-(piperazin-1-yl)azetidin-1-yl)-1H-indazole hydrochloride], the IC50 was 2300 nM. Work on `Cc1nn(-c2ccccc2)c2cc(N3CCC(N4CCNCC4)C3)ccc12` (centres unmarked) [Compound 61, 3-Methyl-1-phenyl-6-(3-(piperazin-1-yl)pyrrolidin-1-yl)-1H-indazole hydrochloride] yielded an IC50 of 1010 nM. `Cc1nn(-c2ccccc2)c2cc(N3CCN(C4CNC4)CC3)ccc12` [Compound 62, 6-(4-(Azetidin-3-yl)piperazin-1-yl)-3-methyl-1-phenyl-1H-indazole hydrochloride] showed an IC50 of 1600 nM. For `Cc1nn(-c2ccccc2)c2cc(N3CCN(C4CCNC4)CC3)ccc12` (centres unmarked) [Compound 63, 3-Methyl-1-phenyl-6-(4-(pyrrolidin-3-yl)piperazin-1-yl)-1H-indazole hydrochloride], the IC50 was 3750 nM. `Cc1nn(-c2ccccc2)c2cc(N3CCN(C4CCNCC4)CC3)ccc12` [Compound 64, 3-Methyl-1-phenyl-6-(4-(piperidin-4-yl)piperazin-1-yl)-1H-indazole hydrochloride] showed an IC50 of 9060 nM. `Cc1nn(-c2ccccc2)c2cc(N3CCN(c4ccncc4)CC3)ccc12` [Compound 65, 3-Methyl-1-phenyl-6-(4-(pyridin-4-yl)piperazin-1-yl)-1H-indazole hydrochloride] showed an IC50 of 7730 nM. `Cc1nn(-c2ccccc2)c2cc(NC(=O)c3ccc4[nH]cnc4c3)ccc12` [Compound 66, N-(3-methyl-1-phenyl-1H-indazol-6-yl)-1H-benzo[d]imidazole-5-carboxamide] was tested, and the IC50 was 160 nM. In the case of `Cc1nn(-c2ccccc2)c2cc(N3CCN(C4CCNCC4)C3=O)ccc12` [Compound 67, 1-(3-Methyl-1-phenyl-1H-indazol-6-yl)-3-(piperidin-4-yl)imidazolidin-2-one hydrochloride], the IC50 is reported as 1230 nM. With `Cc1nn(-c2ccccc2)c2cc(N3CCN(C)CC3)ccc12` [Compound 68, 3-Methyl-6-(4-methylpiperazin-1-yl)-1-phenyl-1H-indazole] the IC50 was 1570 nM. Compound `CCN1CCN(c2ccc3c(C)nn(-c4ccccc4)c3c2)CC1` [Compound 69, 6-(4-Ethylpiperazin-1-yl)-3-methyl-1-phenyl-1H-indazole 2,2,2-trifluoroacetic acid salt] has an IC50 of 14200 nM. `Cc1nn(-c2ccccc2)c2cc(N3CCN(C(C)C)CC3)ccc12` [Compound 70, 6-(4-Isopropylpiperazin-1-yl)-3-methyl-1-phenyl-1H-indazole formic acid salt] was tested, and the IC50 was 14700 nM. For `Cc1nn(-c2ccccc2)c2cc(N3CCNC(C)C3)ccc12` (centres unmarked) [Compound 71, 3-Methyl-6-(3-methylpiperazin-1-yl)-1-phenyl-1H-indazole formic acid salt], the IC50 was 400 nM. With `Cc1nn(-c2ccccc2)c2cc(N3CCC(N)C3)ccc12` (centres unmarked) [Compound 72, 1-(3-Methyl-1-phenyl-1H-indazol-6-yl)pyrrolidin-3-amine formic acid salt] the IC50 was 680 nM. For `COc1nn(-c2ccccc2)c2cc(N3CC(N4CCNCC4)C3)ccc12` [Compound 73, 3-Methoxy-1-phenyl-6-(3-(piperazin-1-yl)azetidin-1-yl)-1H-indazole hydrochloride], the IC50 was 390 nM. Work on `COc1nn(-c2ccccc2)c2cc(N3CCN(C4CNC4)CC3)ccc12` [Compound 74, 6-(4-(Azetidin-3-yl)piperazin-1-yl)-3-methoxy-1-phenyl-1H-indazole hydrochloride] yielded an IC50 of 5960 nM. `COc1nn(-c2ccccc2)c2cc(N3CCN(C4CCNC4)CC3)ccc12` (centres unmarked) [Compound 75, 3-Methoxy-1-phenyl-6-(4-(pyrrolidin-3-yl)piperazin-1-yl)-1H-indazole hydrochloride] showed an IC50 of 310 nM. `COc1nn(-c2ccccc2)c2cc(N3CCN(C4CCNCC4)CC3)ccc12` [Compound 76, 3-Methoxy-1-phenyl-6-(4-(piperidin-4-yl)piperazin-1-yl)-1H-indazole hydrochloride] was tested, and the IC50 was 1380 nM. `COc1nn(-c2ccccc2)c2cc(N3CCN(c4ccncc4)CC3)ccc12` [Compound 77, 3-Methoxy-1-phenyl-6-(4-(pyridin-4-yl)piperazin-1-yl)-1H-indazole hydrochloride] showed an IC50 of 8100 nM. Work on `COc1nn(-c2ccccc2)c2cc(-c3ccc(N4CCNCC4)cc3)ccc12` [Compound 78, 3-Methoxy-1-phenyl-6-(4-(piperazin-1-yl)phenyl)-1H-indazole hydrochloride] yielded an IC50 of 4420 nM. `COc1nn(-c2ccccc2)c2cc(-c3ccc(-n4ccnc4)cc3)ccc12` [Compound 79, 6-(4-(1H-Imidazol-1-yl)phenyl)-3-methoxy-1-phenyl-1H-indazole] was tested, and the IC50 was greater than 30000 nM.
